Test results published in patent US5157052A, “Method for inhibiting IgE production” (priority 1990, dated 1992).

What was measured:
IgE [1] = test: ED50 for inhibition of IgE calculated from the examples; type: in vivo, mouse; details: dose to achieve 50% inhibition of IgE
Procedure: From the data in the above examples, the effective dose of each prostaglandin to achieve 50% inhibition of IgE (ED50) was calculated.

IgE [2] = test: Serum IgE response induced by FF1-4D5 + H∂A1 anti-IgD antibodies (ELISA, Assay A / Assay F); type: in vivo, mouse (Balb/c female)
Procedure: Mouse hybridoma cells expressing either FF1-4D5 antibody or H∂A1 antibody are thawed, established in culture, and incubated in mice as ascite tumors. FF1-4D5 antibody is a mouse IgG2a monoclonal antibody of the b allotype that binds the Fd fragment of the ∂ chain of the a allotype IgD which activates β cells through antigen internalization and processing, promoting cognate interactions with antigen-specific T cells (D. K. Goroff et al., J. Immunol. 136: 2382 (1986)). H∂A1 antibody is a mouse IgG2b of the b allotype that binds the Fc fragment of the ∂ chain of the a allotype IgD which activates β cells through crosslinking IgD (I. M. Zitron and B. L. Clevinger, J. Exp. Med. 152: 1135 (1980)). Each antibody is purified from their respective ascites tumor fluid. […] Serum from the injected mice is recovered and the mean concentration of IgE determined.
Serum levels of IgE are determined and IgE levels are shown to be inhibited in a dose dependent manner.
ELISA (enzyme linked immunosorbant assay) measurements of IgE are as follows. About 5 μg of B1E3 antibody in 100 μl borate buffered saline (pH8.5) is added to wells of a NuncImmulon II 96 well plate (DiRuscio & Assoc., St. Louis, Mo.) at 37° C. for 90 minutes. The non-bound antibody is removed by flicking the plate. Unreacted sites on the plastic plate are blocked by adding about 200 μl of a 2% solution of newborn bovine serum (NBS) in PBS at 37° C. for 60 minutes. The standard IgE (or an unknown murine serum sample) is diluted to between about 4 ng/ml-256 ng/ml in Hanks-HS (20 mM Hepes, 2% NBS in Hanks Balanced Salt Solution, Gibco, Grand Island, N.Y.) or to 1/200 to 1/1000 in Hanks-HS respectively. 100 μl of standard (or unknown dilutions) are added in triplicate to the wells of the plate and allowed to absorb to B1E3 antibody at about 37° C. for 2-4 hours. The solution is removed by flicking the plate and each well is washed with about 0.5 ml 0.05% Tween 20-PBS 5 times. About 100 μl of biotinylated R1E4, called the primary antibody, diluted to 200 ng/ml is added to all wells and incubated at about 4° C. overnight. The solution is removed by flicking the plate and washed 5 times as described above. The developing reagent (Avidin and biotin-horse radish peroxidase) is incubated in 2% NBS in PBS at ambient temperature for 30 minutes, according to manufacturer's specifications (Vector Laboratories, Burlingame, Calif.). About 100 μl of developing reagent is added to each well and incubated at ambient temperature for 30 minutes. Colorimetric substrate for the developing reagent (ABTS peroxidase substrate system, KPL, Gaithersburg, Md.) is prepared by mixing equal volumes of solutions A and B and incubating at ambient temperature for 60 minutes. The developing reagent solution is removed by flicking the plate and washed 5 times as described above. About 100 μl of the mixture of substrates is added to each well and incubated at ambient temperature for 60 minutes. The optical density of each well is determined on a BioTek ELISA reader (Biotek Instruments, Inc., Burlington, Vermont) and the absorbance data transferred electronically to a DEC VAX mainframe computer. A standard curve is fitted to the IgE standard optical densities using straight line, linear regression statistical fits. IgE in the unknown serum samples is determined by comparing the optical density of the unknown to the standard curve and multiplying that number by the dilution of serum used in the assay.
Stimulation of a transient serum IgE response in mouse with two monoclonal antibodies directed against IgD is carried out as follows.
Mouse hybridoma cells expressing either FF1-4D5 antibody or H∂Al antibody are thawed, established in culture, and incubated in CB6 F1 female mice as an ascites tumor and each immunoglobulin is purified from the ascites fluid as described above. […]

[3] = Diarrheal effects in rats; details: rat, in vivo, po
Procedure: Briefly, adult Charles River male rats weighing 210-230 g were individually housed and fasted with water available ad libitum for 24 hours prior to the test. The animals (N=6-12) received logarithmically graded prostaglandin doses orally. Immediately after administration, the animals were returned to their cages, and diarrhea, if any, was assessed on an all or none basis for 8 hours after drug treatment. The ED50 and relative potency values were calculated by the logistic method of Berkson.

IgG2a = test: Serum IgG2a in anti-IgD stimulated mice (two site sandwich ELISA, Assay C); type: in vivo, mouse (Balb/c female); details: 40 μg days 3 and 4; for IgG2a ± SD: Table 11
Procedure: Sera from mice treated with compounds in accordance with the method of the invention are analyzed for levels of IgG1, IgG2a, IgG3, and IgM.
Measurement of mouse IgG2a by a two site sandwich ELISA is performed in substantial accordance with the teaching of Assay B except with the following changes. NuncImmulon II plates are used in this assay. The IgG2a standard is purchased from Southern Biotech. The standard curve is linear between 4-250 ng/ml. Serum containing IgG2a is diluted 1/6400 to 1/1,000,000. About a 1/6,000 dilution of goat anti mouse IgG2a (Southern Biotech) conjugated to alkaline phosphatase is used.
Sera from the mice described in Example 13 are analyzed for the levels of IgG1, IgG2a, and IgG3 by Assays B, C, and D, respectively.
Two groups of 4 Balb/c female mice per group are injected with both 100 μg FF1-4D5 antibody and 100 μg H∂A1 antibody. One of these groups is a stimulated control designated Group B. On day 3 and 4, the other group is injected with 40 μg (±) methyl 11α, 16-dihydroxy-1-methyl-9-oxoprosta-4Z,13E-dien-1-oate. Another group is injected with only PBS as an unstimulated control (Group A). On day -1 and 8, 50-100 μl of serum is recovered and analyzed for IgE, IgG1 and IgG2a by Assays A, B, and C, respectively.
3 groups of 4 Balb/c female mice per group are injected with both 100 μg FF1-4D5 antibody and 100 μg H∂A1 antibody on day 0. Group A is given no further treatment. On day 3 and 4, one group of mice is injected with 20 μg (±) methyl 2-[2-[3R-3α-hydroxy-2β-(4-hydroxy-4-methyl-1E-octenyl-5-oxo-1α-cyclopentyl]-methyl]cyclopropanebutanoate (Group B) and another group with 20 μg (±) methyl 2-[2-[3R-3α-hydroxy-2β-(4-hydroxy-4-methyl-1E-octenyl)-5-oxo-1α-cyclopentyl]ethyl]cyclopropanepropanoate (Group C) as in Example 13. On day -1 and 8, 50-100 μl of serum is recovered and analyzed for IgE, IgG1, IgG2a and IgG3 by Assays A, B, C and D, respectively. The selectivity of inhibition of IgE is shown in Table 12.
Three groups of 5 Balb/c female mice per group are injected with both 100 μg FF1-4D5 antibody and 100 μg H∂A1 antibody on day 0. Group A is a control with no further treatment. On day 3 and 4, the mice are injected with 20 μg (±) methyl 11α,16-dihydroxy-4,4,16-trimethyl-9-oxoprosta-13E-en-1-oate (Group B) or 20 μg (±) methyl 11α,16-dihydroxy-16-methyl-9-oxoprosta-3,5Z,13E-trien-1-oate (Group C) as in Example 13. On day -1 and 8, […] of serum is recovered and analyzed for IgE, IgG1, IgG2a, IgG3 and IgM by Assays A, B, C, D and E, respectively.

IgG1 = test: Serum IgG1 in anti-IgD stimulated mice (two site sandwich ELISA, Assay B); type: in vivo, mouse (Balb/c female); details: 40 μg days 3 and 4; for IgG1 ± SD: Table 11
[4] = Table 15, 20 μg days 3 and 4, day 8 (control 5090)
[5] = Table 15, 20 μg days 3 and 4, day -1 baseline before treatment
[6] = Table 16, 10 μg days 3 and 4, day 8 (control 8548)
[7] = Table 16, 10 μg days 3 and 4, day -1 baseline before treatment
[8] = day -1 baseline before treatment

SMILES	ED50 IgE Inhibition (IgE [1])	de novo IgE synthesis (IgE [2]; 20 μg days 3 and 4, Example 26)	IgE ± SD (IgE [2]; [4])	IgE ± SD (IgE [2]; [5])	TD50 at 8 h [3]	de novo IgE synthesis (IgE [2]; 10 μg days 3 and 4, Example 27)	IgE ± SD (IgE [2]; [6])	IgE ± SD (IgE [2]; [7])	further results
CCCCC(C)(O)C/C=C/[C@H]1[C@H](O)CC(=O)[C@@H]1CCCCCCC(=O)Oc1ccc(NC(C)=O)cc1 (mixture of isomers) [(±) 4-(acetylamino)phenyl-11α,16-dihydroxy-16-methyl-9-oxoprost-13E-en-1-oate]	1.0 μg/mouse/TID	inhibit de novo IgE synthesis	1880 ± 319 ng/mL	< 800 ng/mL					
CCCCC(C)(O)C/C=C/[C@H]1[C@H](O)CC(=O)[C@@H]1CCCCCCC(=O)O (mixture of isomers) [(±) 11α,16-dihydroxy-16-methyl-9-oxo-prost-13E-en-1-oic acid]		inhibit de novo IgE synthesis	1499 ± 132 ng/mL	1029 ± 362 ng/mL					
CCCCC(C)(O)C/C=C/[C@H]1[C@H](O)CC(=O)[C@@H]1CCCCCCC(=O)OC (mixture of isomers) [(±) methyl 11α,16-dihydroxy-16-methyl-9-oxoprost-13E-en-1-oate]	1.5 μg/mouse/TID				0.36 mg/kg	inhibit de novo IgE synthesis	2123 ± 257 ng/mL	< 1600 ng/mL	
CCCCC(C)(O)C/C=C/[C@H]1[C@H](O)CC(=O)[C@@H]1CC/C=C\CCC(=O)OC (mixture of isomers) [(±) methyl 11α,16-dihydroxy-16-methyl-9-oxoprosta-4Z,13E-dien-1-oate]	4.0 μg/mouse/TID				0.049 mg/kg				effect on IgG2a (IgG2a): does not effect IgG1 or IgG2a; IgG2a ± SD (IgG2a; day 9 (control 1056)): 1058 ± 202 µg/mL; IgG2a ± SD (IgG2a; [8]): 160 ± 130 µg/mL; effect on IgG1 (IgG1): does not effect IgG1 or IgG2a; IgG1 ± SD (IgG1; day 9 (control 19800)): 37728 ± 6913 µg/mL; IgG1 ± SD (IgG1; [8]): 2331 ± 2212 µg/mL; de novo IgE synthesis (IgE [2]; 40 μg days 3 and 4): inhibits de novo IgE synthesis; IgE ± SD (IgE [2]; Table 11, 40 μg days 3 and 4, day 8 (control 15890)): 3973 ± 905 ng/mL; IgE ± SD (IgE [2]; Table 11, 40 μg days 3 and 4, day -1 baseline before treatment): 1717 ± 313 ng/mL
CCCCC(C)(O)CCC[C@H]1[C@H](O)CC(=O)[C@@H]1CCCCCCC(=O)OC (mixture of isomers) [(±) methyl-11α,16-dihydroxy-16-methyl-9-oxoprostan-1-oate]	4.8 μg/mouse/TID					inhibit de novo IgE synthesis	3844 ± 238 ng/mL	< 1600 ng/mL	
CCCCC(C)(O)C/C=C/[C@H]1[C@H](O)CC(=O)[C@@H]1CCCCCCC(=O)OC(C)C (relative stereo) [(±) methylethyl-11α,16-dihydroxy-16-methyl-9-oxoprost-13E-en-1-oate]	1.5 μg/mouse/TID						2127 ± 149 ng/mL	< 1600 ng/mL	
